# How the values were obtained:
# [1] = target: T1, Tyrosine-protein phosphatase non-receptor type 1 (Homo sapiens) (UniProt P18031); test: Inhibition of PTP1B (unknown origin) at 20 ug/ml using pNPP as substrate incubated for 30 mins by ELISA relative to control
# T1 sequence (whole entry): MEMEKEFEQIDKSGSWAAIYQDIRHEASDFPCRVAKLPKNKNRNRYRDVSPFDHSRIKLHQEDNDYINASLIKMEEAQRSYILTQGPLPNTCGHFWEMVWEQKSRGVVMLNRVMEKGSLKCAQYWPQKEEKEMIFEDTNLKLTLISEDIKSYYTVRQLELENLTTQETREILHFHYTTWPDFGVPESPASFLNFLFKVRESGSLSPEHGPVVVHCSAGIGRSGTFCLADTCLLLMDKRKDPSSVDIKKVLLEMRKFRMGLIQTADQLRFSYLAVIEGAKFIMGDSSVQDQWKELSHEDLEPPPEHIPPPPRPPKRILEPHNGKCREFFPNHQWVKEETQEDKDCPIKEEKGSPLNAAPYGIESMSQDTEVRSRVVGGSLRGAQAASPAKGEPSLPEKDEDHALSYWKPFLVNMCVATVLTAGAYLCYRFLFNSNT
# [2] = target: T2, Tyrosine-protein phosphatase non-receptor type 1 (Homo sapiens, UniProt P18031); test: Inhibition of PTP1B (unknown origin) using pNPP as substrate incubated for 30 mins by ELISA
# T2 sequence (P18031 whole entry): T1 sequence (whole entry)
inhibition [1],IC50 [2],Compound
> 96%,11 µM,C=C1CC[C@@H]2[C@H](CC2(C)C)[C@@]2(CC[C@@H]1O)C[C@H](c1ccccc1)c1c(O)c(C=O)c(O)c(C=O)c1O2
> 96%,18.9 µM,CC(C)[C@@H]1CC[C@@H](C)[C@]2(O)C[C@@H]3[C@H](c4ccccc4)c4c(O)c(C=O)c(O)c(C=O)c4O[C@]3(C)C=C12
> 96%,11.9 µM,C/C1=C/C[C@@H]2[C@H](CC2(C)C)[C@@]2(CC[C@H]1O)C[C@H](c1ccccc1)c1c(O)c(C=O)c(O)c(C=O)c1O2
> 96%,22.8 µM,C=C1CC[C@@H]2[C@H]([C@@H]3Oc4c(C=O)c(O)c(C=O)c(O)c4[C@H](c4ccccc4)[C@@]3(C)CC[C@H]1O)C2(C)C
> 96%,6.2 µM,CC(C)[C@@H]1CC[C@@H](C)[C@H]2C[C@@]3(O)[C@H](c4ccccc4)c4c(O)c(C=O)c(O)c(C=O)c4O[C@]3(C)C=C12
> 96%,9.2 µM,C/C1=C/C[C@@H]2[C@H]([C@@H]3Oc4c(C=O)c(O)c(C=O)c(O)c4[C@H](c4ccccc4)[C@@]3(C)CC[C@@H]1O)C2(C)C
> 96%,10.7 µM,CC(C)[C@@H]1CC[C@@H](C)[C@]23C[C@@H]4[C@H](c5ccccc5)c5c(O)c(C=O)c(O)c(C=O)c5O[C@]4(C)[C@@H](O)[C@]12O3
> 96%,19.1 µM,CC(C)[C@@H]1CC[C@@H](C)[C@H]2C[C@]34O[C@H]([C@@]21O)[C@@]3(C)Oc1c(C=O)c(O)c(C=O)c(O)c1[C@H]4c1ccccc1
> 96%,22.8 µM,C=C1CC[C@@H]2[C@H]([C@@H]3Oc4c(C=O)c(O)c(C=O)c(O)c4[C@H](c4ccccc4)[C@@]3(C)CC[C@@H]1O)C2(C)C
> 96%,4.7 µM,C=C1CC[C@@H]2[C@H](CC2(C)C)[C@@]2(CC[C@H]1O)C[C@H](c1ccccc1)c1c(O)c(C=O)c(O)c(C=O)c1O2

# Reference: ChEMBL document CHEMBL4414657, “Psiguadiols A-J, Rearranged Meroterpenoids as Potent PTP1B Inhibitors from Psidium guajava” (J Nat Prod, 2019)
